Entries after “also recorded” stand apart in the source; their conditions may differ. Where two headings read alike, the source gives them in different places.
How the values were obtained:
[1] = cited from earlier work
[2] = tested on: renal cortical tumors and cysts; test: Clinical trial: intraoperative near infrared fluorescence (NIRF) imaging of the kidney after intravenous ICG in radical or partial nephrectomy patients; type: in vivo, human
Experimental: Following Institutional Review Board approval, a clinical trial of the invention was conducted. Ten patients presenting for radical or partial nephrectomy were enrolled in the trial. After the kidney was mobilized (typically, only one of the patient's kidneys is involved in such operations), ˜10 cc (2.5 mg/ml) of ICG was injected intravenously. Shortly after injection, near infrared fluorescence (NIRF) imaging was conducted and recorded using a LUNA™ NIRF system (Novadaq Technologies Inc, Mississauga, Canada). The first two patients selected presented for radical nephrectomy. […] After removal, the kidneys were studied by NIRF imaging to confirm that normal and tumor tissue could be distinguished. […] Eight of these patients were studied.

[3] = Clinical trial: safety of intravenous ICG in nephrectomy patients; type: in vivo, human; conditions: ten patients, ICG intravenously
Experimental: Following Institutional Review Board approval, a clinical trial of the invention was conducted. Ten patients presenting for radical or partial nephrectomy were enrolled in the trial. After the kidney was mobilized (typically, only one of the patient's kidneys is involved in such operations), ˜10 cc (2.5 mg/ml) of ICG was injected intravenously. Shortly after injection, near infrared fluorescence (NIRF) imaging was conducted and recorded using a LUNA™ NIRF system (Novadaq Technologies Inc, Mississauga, Canada).
Microscopy and histological studies were performed on excised tissue. […] Histological examination using hematoxylin and eosin staining confirmed the location of differential ICG fluorescence in tumor and normal renal tissue. All surgical margins were negative: 4 mm (the range of the margin was from 2-10 mm).

[4] = Animal studies: ICG injected into the penis to image nerves, kidney fluorescence observed; type: in vivo; conditions: animals
Text: The present invention stems in part from studies we took in using the near infrared fluorescent dye indocyanine green (“ICG”) to image cavernous nerves of the penis. When abdominal incisions were made, we noted that the kidneys were fluorescent for hours to days after ICG administration, even though ICG is cleared quickly from the circulation. Because we are urologists, we are aware that kidney tumors tend to be hypervascular and develop rich vascular beds that are not uniform. We formed the hypothesis that the vascular beds would tend to impede the flow of ICG out of the tumor. We realized that any difference in admission or retention of fluorescent dye between normal and tumor tissue would result in different amounts of fluorescence, and that these differences could be exploited to detect the presence or absence of tumors in areas of the kidney. We hypothesized that kidney tumors would tend to retain ICG more than areas of the kidney with normal vasculature, and that areas within the kidney that fluoresced when exposed to light of an appropriate excitation frequency would identify the presence of tumors.
Typically, the dye is administered sufficiently before the intended surgery to permit the kidney to take up the dye, but not so long before the surgery that the dye has been cleared by the liver or otherwise eliminated from the body. […]

intrinsic brain tumors = conditions: nine patients, ICG as intravenous contrast-enhancement agent; cited from earlier work
[5] = mammals, several months after the treatment, cited from earlier work

Compound | metabolism ([1]; in the body) | excretion ([1]; in vivo) | reabsorption from the intestine / enterohepatic recirculation ([1]; in vivo) | distribution after intravenous injection ([1]; with normal vascular permeability) | surgical margins ([2]; partial nephrectomy under NIRF imaging) | fluorescence of complex / hemorrhagic cysts under NIRF imaging ([2]; patients, ICG intravenously) | fluorescence of normal kidney tissue under NIRF imaging ([2]; patients, ICG intravenously) | fluorescence of kidney tumors under NIRF imaging ([2]; patients, ICG intravenously, ~10 cc (2.5 mg/ml), against normal kidney parenchyma) | fluorescence of benign cysts under NIRF imaging ([2]; patients, ICG intravenously, compared to normal parenchyma) | effects of the dye on post-operative hepatorenal function [3] | hypersensitivity reactions [3] | kidney fluorescence 18 hours after injection ([4]; ICG injected into the penis, 18 hours after injection) | duration of kidney fluorescence after ICG administration ([4]; seen at abdominal incision) | dynamic optical signals of brain tissue and tumors (intrinsic brain tumors) | optical imaging of resection margins in malignant tumors (intrinsic brain tumors) | neuronal toxicity [5] | neuronal toxicity ([5]; listed as fluorogold)
CC1(C)C(/C=C/C=C/C=C/C=C2\N(CCCCS(=O)(=O)O)c3ccc4ccccc4c3C2(C)C)=[N+](CCCCS(=O)(=O)[O-])c2ccc3ccccc3c21 [ICG, indocyanine green] | not metabolized in the body | excreted exclusively by the liver | not reabsorbed from the intestine and does not undergo enterohepatic recirculation | remains intravascular | negative | hypo- or non-fluorescent; also recorded: NIRF characteristics of renal cell carcinoma | fluoresced brightly; also recorded: brightly fluorescent | non-fluorescing “black” or hypofluorescent “gray” areas; also recorded: hypo- or non-fluorescent areas; also recorded: hypo-fluorescent or non-fluorescent areas | even more fluorescent than did normal tissue; also recorded: increased fluorescence compared to the normal parenchyma | No hypersensitivity reactions or effects of the dye on post-operative hepatorenal function were observed | No hypersensitivity reactions | intense fluorescence | hours to days | differences in the dynamic optical signals among normal brain, low-grade astrocytomas, and malignant astrocytomas | differences between adjacent normal tissue and remaining tumor tissue |  | 
N=C(N)c1ccc(/C=C/c2ccc(C(=N)N)cc2O)cc1 [Fluorogold] |  |  |  |  |  |  |  |  |  |  |  |  |  |  |  | low evidence of neuronal toxicity | without evidence of neuronal toxicity
